Data set [1] can be described thus: General cytotoxicity on primary differentiated HepaRG cells (72 h). The data set is classed as cell-based. Particulars: human, general toxicity, mean value from several measurements. The gist of the method: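 Differentiated HepaRG cells, maintained a week in basal hepatic medium with maintenance/metabolism supplement, were plated at 25×10^3 cells/well overnight. Compounds (200 μM to 0.2 nM) were added for 72 h before viability readout.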

In data set [2] the test system is MDA-MB-468 (triple negative breast cancer). Kind of data set: Antiproliferative assay on MDA-MB-468 cells (AlamarBlue, 96 h). Particulars: Homo sapiens, mean value from several measurements. The data set is classed as cell-based. Background: The colour change of resazurin is a common sign of viable cells or microbes.
Another data set addresses CDK9/Cyclin K (Homo sapiens, UniProt P50750). Nature of the data set: Inhibition of CDK9/Cyclin K kinase activity (ADP-Glo). The data set is classed as biochemical. The gist of the method:
(§1)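 Kinase preincubated with compound (11 points, 4-fold steps from 50 μM) for 10 minutes at 25° C. in kinase buffer A with DTT, then reacted 40-60 minutes at 25° C. with ATP and CDKtide, Histone H1 or PDKtide substrate. ADP formation read by ADP-Glo luminescence; IC50 from four-parameter fit.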

Data set [3] is described as follows: Passive membrane permeability through PAMPA artificial membrane, pH 7.4. Format: in vitro ADME. Particulars: pH 7.4, 10 μmol, 20 hours at room temperature, mean of multiple measurements, read-out: PAMPA passive permeability Pe. Here is the method: Passive membrane permeability of the compounds described in the present invention was determined using the PAMPA (parallel artificial membrane permeability assay) model at pH 7.4.
We used a 96-well plate (Corning® BioCoat® Pre-coated PAMPA Plate System, order no. 353015), composed of acceptor and donor parts with cell membrane-modeling PVDF filter pre-impregnated with a lecithin-phospholipid bilayer. The substance (at a concentration of 10 μmol) in a 0.01 M phosphate buffer with pH 7.4 was introduced into a donor well of the plate, and pure buffer was introduced into an acceptor well; afterwards, the both parts were combined and incubated for 20 hours at room temperature so that the compound was redistributed between the two wells and the membrane. Verapamil (USP, USA, order no. 1711202) and propranolol (MCE LLC, USA, cat. no. HY-B0573/CS-2680) were used as control compounds with high and medium permeability. Samples were analyzed by reversed-phase HPLC with UV detection (Agilent 1260 chromatograph with UV detector) by determining their peak areas in the donor and acceptor wells.
Permeability (Pe, cm/s) and retention factor (R, %) in the lipid bilayer were calculated using the formula:
[formula] [formula] • Co is donor-well concentration of the substance at the initial moment of time t (μM); • CA (t) is acceptor-well concentration of the substance at time t (μM); • Vd is donor-well volume (0.3 ml); • Va is acceptor-well volume (0.15 ml).
[formula] • A is filter area (0.3 cm^2); • t is incubation time (72000 s);

The next data set has as its target CDK2/Cyclin A (Homo sapiens, UniProt P24941). Kind of data set: Inhibition of CDK2/Cyclin A kinase activity (ADP-Glo). Format: biochemical. The essentials: as §1
(In general: In ADP-Glo the light output rises with the ADP produced.)

The next data set concerns the target CDK7/Cyclin H/MNAT1 (Homo sapiens, UniProt P50613). Kind of data set: Inhibition of CDK7/Cyclin H/MNAT1 kinase activity (ADP-Glo). The data set is classed as biochemical. The gist of the method:
as §1

Data set [4] has as its system NCl-H82 (small cell lung cancer). Kind of data set: Antiproliferative assay on NCl-H82 cells (AlamarBlue, 120 h). The data set is classed as cell-based. The conditions noted are these: mean value from several measurements. Here is the method: The antiproliferative activity of CDK7 inhibitors according to the present invention was evaluated in a cell test using continuous cell cultures: MDA-MB-468 (triple negative breast cancer, ATCC® HTB-132™) and NCl-H82 (small cell lung cancer, ATCC® HTB-175™) using a viable AlamarBlue dye (Thermo Fisher Scientific Inc, order no. DAL1100). The cells were grown in DMEM (PanEco, order no. C330π) and RPMI-1640 (PanEco, order no. C330π), respectively. The basal growth medium was enriched with L-glutamine at a concentration of 2 mM (PanEco, order no. Φ032) and 10% fetal bovine serum (Gibco, order no. 16140-071). The night before measurement, MDA-MB-468 adherent cells were detached from plastic with a solution of trypsin-EDTA (PanEco, order no. Π039π), the solution was then inactivated by a DMEM complete medium, centrifuged at 1000 RPM (Eppendorf, 5804 R), a suspension of cells was prepared in a DMEM complete medium, introduced into 96-well culture plates (Corning Inc, order no. 3599) at 8×10^3 cells in 100 μl of medium per well. The next day, test compounds were dissolved in DMSO and diluted with a DMEM complete medium to a final concentration ranging from 50 μM to 10 pM. Diluted compounds in a volume of 50 μl were introduced into the plate wells with cells in triplicates (the final concentration of DMSO was no more than 1%) and incubated at 37° C. in an incubator with 5% CO2 for 96 hours. NCl-H82 suspension cell line was prepared on the day of the analysis. 10×10^3 cells in 100 μl of an RPMI-1640 complete medium were added to each well of a 96-well plate. The procedure for sample dilution is as described above. Cells with test compounds were incubated at 37° C. in an incubator with 5% CO2 for 120 hours. Following incubation, […] of AlamarBlue reagent (Thermo Fisher Scientific Inc., order no. DAL1100) was added to the wells, the contents of the plates were stirred in an orbital shaker (Biosan, Latvia), then further incubated for 5.5-6 hours at 37° C. in an incubator with 5% CO2. The number of viable cells was detected using the Infinite M200Pro microplate spectrophotometer (Tecan Group Ltd, Switzerland) by way of measuring a fluorescent signal at an excitation wavelength (λEx) of 540 nm and an emission wavelength (λEm) of 590 nm.
IC50 value was calculated using the Magellan software (Tecan Group Ltd, Switzerland) by approximating experimental points by four-parameter model with the optimization by Levenberg-Marquardt: […]

Where [5] appears, read: mean value from several measurements, read-out: IC50 CDK9/Cyclin K.
Setting [6] is: mean value from several measurements, read-out: IC50 CDK2/Cyclin A.
Setting [7] is: mean value from several measurements, read-out: IC50 CDK7/Cyclin H/MNAT.
Setting [8] is: mean of multiple measurement series, ATP 50 μM, read-out: CDK9/Cyclin K IC50.
Setting [9] is: mean of multiple measurement series, ATP 50 μM, read-out: CDK2/Cyclin A IC50.
Setting [10] is: mean of multiple measurement series, ATP 10 μM, read-out: CDK7/Cyclin H/MNAT1 IC50.

SMILES strings stand for the structures. Where two headings read alike, the source gives them in different places.

Sequence of CDK9/Cyclin K (P50750 whole entry): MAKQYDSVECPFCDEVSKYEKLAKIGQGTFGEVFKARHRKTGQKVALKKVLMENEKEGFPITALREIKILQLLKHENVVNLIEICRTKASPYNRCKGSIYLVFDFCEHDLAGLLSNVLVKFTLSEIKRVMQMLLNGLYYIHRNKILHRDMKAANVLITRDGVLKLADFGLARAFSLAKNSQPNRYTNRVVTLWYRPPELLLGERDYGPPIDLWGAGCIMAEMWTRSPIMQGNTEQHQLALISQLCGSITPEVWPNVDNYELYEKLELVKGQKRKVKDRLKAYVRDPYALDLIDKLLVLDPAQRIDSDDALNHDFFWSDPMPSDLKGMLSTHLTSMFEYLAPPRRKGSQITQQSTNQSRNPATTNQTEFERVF
Sequence of CDK9/Cyclin K (O75909 whole entry partner): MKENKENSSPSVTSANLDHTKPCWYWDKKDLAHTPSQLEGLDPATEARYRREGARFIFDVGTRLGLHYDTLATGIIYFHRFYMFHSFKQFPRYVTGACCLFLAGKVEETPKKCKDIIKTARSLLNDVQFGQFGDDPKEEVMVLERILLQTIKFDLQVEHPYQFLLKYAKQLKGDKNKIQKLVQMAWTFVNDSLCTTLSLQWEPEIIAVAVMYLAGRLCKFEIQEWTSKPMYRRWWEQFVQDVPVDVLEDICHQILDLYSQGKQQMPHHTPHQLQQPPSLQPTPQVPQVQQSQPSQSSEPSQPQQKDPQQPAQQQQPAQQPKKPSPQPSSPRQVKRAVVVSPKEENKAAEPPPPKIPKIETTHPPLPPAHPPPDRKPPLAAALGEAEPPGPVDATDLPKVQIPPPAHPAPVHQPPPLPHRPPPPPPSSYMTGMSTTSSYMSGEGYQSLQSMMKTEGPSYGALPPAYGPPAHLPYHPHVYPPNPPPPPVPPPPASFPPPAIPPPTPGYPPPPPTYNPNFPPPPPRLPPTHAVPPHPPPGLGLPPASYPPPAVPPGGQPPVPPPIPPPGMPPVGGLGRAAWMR
Sequence of CDK7/Cyclin H/MNAT1 (P50613 whole entry): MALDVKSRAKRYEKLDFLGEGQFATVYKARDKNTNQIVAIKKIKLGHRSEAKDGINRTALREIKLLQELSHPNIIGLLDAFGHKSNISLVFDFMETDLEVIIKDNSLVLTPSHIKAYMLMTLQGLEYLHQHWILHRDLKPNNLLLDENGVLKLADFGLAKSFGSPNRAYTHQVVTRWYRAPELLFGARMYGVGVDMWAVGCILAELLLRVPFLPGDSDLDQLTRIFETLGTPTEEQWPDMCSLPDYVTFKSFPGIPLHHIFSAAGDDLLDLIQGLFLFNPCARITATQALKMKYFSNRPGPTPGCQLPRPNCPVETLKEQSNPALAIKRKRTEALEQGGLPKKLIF
Sequence of CDK7/Cyclin H/MNAT1 (P51946 whole entry partner): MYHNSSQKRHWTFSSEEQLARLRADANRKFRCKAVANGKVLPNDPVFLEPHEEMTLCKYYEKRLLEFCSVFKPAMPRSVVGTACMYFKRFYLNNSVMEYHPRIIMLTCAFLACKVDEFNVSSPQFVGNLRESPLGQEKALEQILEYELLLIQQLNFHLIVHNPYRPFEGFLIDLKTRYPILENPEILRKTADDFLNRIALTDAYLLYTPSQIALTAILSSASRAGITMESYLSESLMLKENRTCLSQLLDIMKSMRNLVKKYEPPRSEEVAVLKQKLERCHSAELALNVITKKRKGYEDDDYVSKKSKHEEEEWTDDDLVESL
Sequence of CDK7/Cyclin H/MNAT1 (P51948 whole entry partner): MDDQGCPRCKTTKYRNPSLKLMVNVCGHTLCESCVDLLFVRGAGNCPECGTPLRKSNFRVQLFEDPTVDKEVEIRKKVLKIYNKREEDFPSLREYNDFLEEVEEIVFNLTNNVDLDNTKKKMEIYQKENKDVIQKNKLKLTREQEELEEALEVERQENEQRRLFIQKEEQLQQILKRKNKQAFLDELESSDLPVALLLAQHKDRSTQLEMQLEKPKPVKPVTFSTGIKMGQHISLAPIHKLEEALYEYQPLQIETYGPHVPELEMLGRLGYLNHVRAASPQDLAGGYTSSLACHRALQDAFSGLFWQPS

Broadly, the CC50 is the concentration at which the toxic effect on the cells reaches its halfway point. Read a high CC50 as better tolerance by the cells. In turn, `CN1CC=Cc2c(-c3nc(N[C@H]4CCCNC4)ncc3C(F)(F)F)c[nH]c2C1=O` [CDK7_929] gave a CC50 at 72 h in data set [1] of 100 to 500 nM. Moreover, the IC50 in data set [2] was under 10 nM; on CDK9/Cyclin K (setting [5]), 5 to 50 nM; at CDK2/Cyclin A (setting [6]), over 200 nM; on CDK7/Cyclin H/MNAT1 (setting [7]), under 5 nM; in data set [4], under 10 nM. For the same compound, in data set [3], the Papp at 20 h, 10 μmol was under 1 ×10⁻⁶ cm/s.

Take `CC1(C)CC[C@H](Nc2ncc(C(F)(F)F)c(-c3c[nH]c4c3CCCN(C3CCC3)C4=O)n2)CN1` [CDK7_1226, 7-cyclobutyl-3-(2-{[(3S)-6,6-dimethylpiperidin-3-yl]amino}-5-(trifluoromethyl)py-rimidin-4-yl)-1H,4H,5H,6H,7H, 8H-pyrrolo[2,3-c]azepin-8-one]: in data set [1], the CC50 at 72 h is over 2000 nM. The IC50 in data set [2] is 10 to 100 nM; at CDK9/Cyclin K (setting [8]), 760 nM; on CDK9/Cyclin K (setting [5]), over 200 nM; at CDK2/Cyclin A (setting [9]), 18600 nM; at CDK2/Cyclin A (setting [6]) it was over 200 nM; on CDK7/Cyclin H/MNAT1 (setting [10]), 5.6 nM. The IC50 on CDK7/Cyclin H/MNAT1 (setting [7]) was under 5 nM; in data set [4], 10 to 100 nM. Moreover, the Papp at 20 h, 10 μmol in data set [3] is 1 to 5 ×10⁻⁶ cm/s.

For the compound `Cn1ccc2c(-c3nc(N[C@H]4CCCNC4)ncc3C(F)(F)F)c[nH]c2c1=O` [CDK7_845, 6-methyl-3-(2-{[(3S)-piperidin-3-yl]amino}-5-(trifluoromethyl)pyrimidin-4-yl)-1H,6H,7H-pyrrolo[2,3-c]pyridin-7-one], in data set [1], the CC50 at 72 h is 100 to 500 nM. In addition, the IC50 in data set [2] was under 10 nM; at CDK9/Cyclin K (setting [5]), 5 to 50 nM; on CDK2/Cyclin A (setting [6]), over 200 nM; at CDK7/Cyclin H/MNAT1 (setting [7]), under 5 nM; in data set [4], under 10 nM. Moreover, the Papp at 20 h, 10 μmol in data set [3] is under 1 ×10⁻⁶ cm/s.

`FC(F)(F)c1cnc(N[C@H]2CCCNC2)nc1-c1c[nH]c(-c2ncccn2)c1` [CDK7_1062, N-[(3S)-piperidin-3-yl]-4-[5-(pyrimidin-2-yl)-1H-pyrrol-3-yl]-5-(trifluoromethyl)py-rimidin-2-amine]: the CC50 at 72 h in data set [1] lay within 100 to 500 nM. The IC50 in data set [2] was 10 to 100 nM; at CDK9/Cyclin K (setting [5]) it was 5 to 50 nM; at CDK2/Cyclin A (setting [6]), over 200 nM; on CDK7/Cyclin H/MNAT1 (setting [7]), under 5 nM; in data set [4], 10 to 100 nM.

Take `O=C(Nc1ccc(N2CCOCC2)cc1)c1cc(-c2nc(N[C@H]3CCCNC3)ncc2C(F)(F)F)c[nH]1` [CDK7_838, N-[4-(morpholin-4-yl)phenyl]-4-(2-{[(3S)-piperidin-3-yl]amino}-5-(trifluoromethyl)pyrimidin-4-yl)-1H-pyrrole-2-carboxamide]: in data set [1], the CC50 at 72 h is 500 to 2000 nM. For the same compound, the IC50 in data set [2] was 100 to 1000 nM; on CDK9/Cyclin K (setting [5]), 50 to 200 nM; at CDK2/Cyclin A (setting [6]) it was over 200 nM; at CDK7/Cyclin H/MNAT1 (setting [7]) it was 5 to 50 nM; in data set [4] it was 100 to 1000 nM.

For `FC(F)(F)c1cnc(N[C@H]2CCCNC2)nc1-c1c[nH]c(-c2ccccn2)c1` [CDK7_1061, N-[(3S)-piperidin-3-yl]-4-[5-(pyridin-2-yl)-1H-pyrrol-3-yl]-5-(trifluoromethyl)py-rimidin-2-amine], the CC50 at 72 h in data set [1] lay within 500 to 2000 nM. The IC50 was 10 to 100 nM in data set [2], 5 to 50 nM at CDK9/Cyclin K (setting [5]), 5 to 50 nM at CDK7/Cyclin H/MNAT1 (setting [7]) and 10 to 100 nM in data set [4]. The Papp at 20 h, 10 μmol in data set [3] was in the range of 1 to 5 ×10⁻⁶ cm/s.

On to `Cn1cc(-n2ccc3c(-c4nc(N[C@H]5CCCNC5)ncc4C(F)(F)F)c[nH]c3c2=O)ccc1=O` [CDK7_1052, 1-methyl-5-[7-oxo-3-(2-{[(3S)-piperidin-3-yl]amino}-5-(trifluoromethyl)py-rimidin-4-yl)-1H,6H,7H-pyrrolo[2,3-c]pyridin-6-yl]-1,2-dihydropyridin-2-one], for which the CC50 at 72 h in data set [1] was over 2000 nM. The IC50 was 100 to 1000 nM in data set [2]; 479 nM on CDK9/Cyclin K (setting [8]); over 200 nM on CDK9/Cyclin K (setting [5]); 12400 nM on CDK2/Cyclin A (setting [9]); over 200 nM on CDK2/Cyclin A (setting [6]); under 5 nM at CDK7/Cyclin H/MNAT1 (setting [10]). For the same compound, the IC50 on CDK7/Cyclin H/MNAT1 (setting [7]) is under 5 nM; in data set [4] it was 100 to 1000 nM.

Values taken from patent publication US20260137698A1, “CYCLIN-DEPENDENT KINASE 7 INHIBITORS” (JOINT STOCK COMPANY «BIOCAD», priority 2022, published 2026).
